Like-named read-outs stand apart in the source and are kept apart here.
Legend:
in vitro = conditions: human, uninfected MT-4 cells
pLAI reporter virus = assay: microbe, parasite or virus in culture; type: cell-based, HIV; conditions: Human immunodeficiency virus 1, MT4, 72 h
HIV-1 (IIIB) = assay: microbe, parasite or virus in culture; type: cell-based; conditions: Human immunodeficiency virus 1, IIIB, MT4, 120 h, read-out: MT4 EC50
[1] = HIV-1 (IIIB) in MT-4 cells, 5 days incubation, Cell Titer Glo

Row | Structure (SMILES) | CC50 at 5 days (in vitro) [nM] | EC50 (pLAI reporter virus; read-out: RLUC 50% HS EC50) [nM] | EC50 (pLAI reporter virus; read-out: RLUC CCM EC50) [nM] | EC50 (HIV-1 (IIIB); [1]) [nM] | EC50 (HIV-1 (IIIB)) [nM]
1 | CSC1=NO[C@@]2(CC[C@H](C)N3C[C@H]2n2cc(C(=O)NCc4c(F)cc(F)cc4F)c(=O)c(O)c2C3=O)C1 [Example 43, (3′S,5S,7′R)-12′-hydroxy-3′-methyl-3-(methylthio)-1′,11′-dioxo-N-(2,4,6-trifluorobenzyl)-1′,4′,5′,11′-tetrahydro-3′H,4H,7′H-spiro[isoxazole-5,6′-[2,7]methanopyrido[1,2-a][1,4]diazonine]-10′-carboxamide] | 33400 | 279 | 1.5 | 6.1 | 
2 | C[C@H]1CC[C@]2(CC(Br)=NO2)[C@H]2CN1C(=O)c1c(O)c(=O)c(C(=O)NCc3ccc(F)cc3F)cn12 [Example 44, (3′S,5S,7′R)-3-bromo-N-(2,4-difluorobenzyl)-12′-hydroxy-3′-methyl-1′,11′-dioxo-1′,4′,5′,11′-tetrahydro-3′H,4H,7′H-spiro[isoxazole-5,6′-[2,7]methanopyrido[1,2-a][1,4]diazonine]-10′-carboxamide] | 24400 | 160 | 0.1 | 0.7 | 
3 | C[C@H]1CC[C@]2(CC(OC3COC3)=NO2)[C@H]2CN1C(=O)c1c(O)c(=O)c(C(=O)NCc3ccc(F)cc3F)cn12 [Example 45, (3′S,5S,7′R)—N-(2,4-difluorobenzyl)-12′-hydroxy-3′-methyl-3-(oxetan-3-yloxy)-1′,11′-dioxo-1′,4′,5′,11′-tetrahydro-3′H,4H,7′H-spiro[isoxazole-5,6′-[2,7]methanopyrido[1,2-a][1,4]diazonine]-10′-carboxamide] | ≥ 50000 | 1.8 | 0.4 | 2 | 
4 | C[C@H]1CC[C@]2(CC(OCC(F)(F)F)=NO2)[C@H]2CN1C(=O)c1c(O)c(=O)c(C(=O)NCc3ccc(F)cc3F)cn12 [Example 46, (3′S,5S,7′R)—N-(2,4-difluorobenzyl)-12′-hydroxy-3′-methyl-1′,11′-dioxo-3-(2,2,2-trifluoroethoxy)-1′,4′,5′,11′-tetrahydro-3′H,4H,7′H-spiro[isoxazole-5,6′-[2,7]methanopyrido[1,2-a][1,4]diazonine]-10′-carboxamide] | 7720 | 2.3 | 0.1 | 1.7 | 
5 | C[C@H]1CC[C@]2(CC(OCC(F)F)=NO2)[C@H]2CN1C(=O)c1c(O)c(=O)c(C(=O)NCc3ccc(F)cc3F)cn12 [Example 47, (3′S,5S,7′R)—N-(2,4-difluorobenzyl)-3-(2,2-difluoroethoxy)-12′-hydroxy-3′-methyl-1′,11′-dioxo-1′,4′,5′,11′-tetrahydro-3′H,4H,7′H-spiro[isoxazole-5,6′-[2,7]methanopyrido[1,2-a][1,4]diazonine]-10′-carboxamide] | 27500 | 6.5 | 0.5 | 1.8 | 
6 | COC1=NO[C@@]2(C=C[C@H](C)N3C[C@H]2n2cc(C(=O)NCc4ccc(F)c(Cl)c4F)c(=O)c(O)c2C3=O)C1 [Example 48, (3′S,5R,7′R)—N-(3-chloro-2,4-difluorobenzyl)-12′-hydroxy-3-methoxy-3′-methyl-1′,11′-dioxo-1′,11′-dihydro-3′H,4H,7′H-spiro[isoxazole-5,6′-[2,7]methanopyrido[1,2-a][1,4]diazonine]-10′-carboxamide] | 22900 | 8.1 | 0.2 | 0.4 | 
7 | COC1=NO[C@@]2(CC[C@H](C)N3C[C@H]2n2cc(C(=O)NCc4ccc(F)c(Cl)c4F)c(=O)c(O)c2C3=O)C1 [Example 49, (3′S,5S,7′R)—N-(3-chloro-2,4-difluorobenzyl)-12′-hydroxy-3-methoxy-3′-methyl-1′,11′-dioxo-1′,4′,5′,11′-tetrahydro-3′H,4H,7′H-spiro[isoxazole-5,6′-[2,7]methanopyrido[1,2-a][1,4]diazonine]-10′-carboxamide] | 29800 | 124 | 0.3 | 0.7 | 
8 | C[C@H]1CC[C@@]2(ON=C3OCCC[C@@H]32)[C@H]2CN1C(=O)c1c(O)c(=O)c(C(=O)NCc3c(F)cc(F)cc3F)cn12 [Example 50, (3S,3a R,3′S,7′R)-12′-hydroxy-3′-methyl-1′,11′-dioxo-N-(2,4,6-trifluorobenzyl)-1′,3a,4,4′,5,5′,6,11′-octahydro-3′H,7′H-spiro[pyrano[2,3-c]isoxazole-3,6′-[2,7]methanopyrido[1,2-a][1,4]diazonine]-10′-carboxamide] | ≥ 50000 | 10.3 | 0.5 | 0.8 | 
9 | CNC1=NO[C@@]2(CC[C@H](C)N3C[C@H]2n2cc(C(=O)NCc4c(F)cc(F)cc4F)c(=O)c(O)c2C3=O)C1 [Example 51, (3′S,5S,7′R)-12′-hydroxy-3′-methyl-3-(methylamino)-1′,11′-dioxo-N-(2,4,6-trifluorobenzyl)-1′,4′,5′,11′-tetrahydro-3′H,4H,7′H-spiro[isoxazole-5,6′-[2,7]methanopyrido[1,2-a][1,4]diazonine]-10′-carboxamide] | 41100 | 5.2 | 0.3 | 1.3 | 
10 | C[C@H]1CC[C@]2(CC(N(C)C)=NO2)[C@H]2CN1C(=O)c1c(O)c(=O)c(C(=O)NCc3c(F)cc(F)cc3F)cn12 [Example 52, (3′S,5S,7′R)-3-(dimethylamino)-12′-hydroxy-3′-methyl-1′,11′-dioxo-N-(2,4,6-trifluorobenzyl)-1′,4′,5′,11′-tetrahydro-3′H,4H,7′H-spiro[isoxazole-5,6′-[2,7]methanopyrido[1,2-a][1,4]diazonine]-10′-carboxamide] | 27000 | 6.2 | 0.3 |  | 0.9
11 | C[C@H]1CC[C@]2(CC(Cl)=NO2)[C@H]2CN1C(=O)c1c(O)c(=O)c(C(=O)NCc3c(F)cc(F)cc3F)cn12 [Example 53, (3′S,5S,7′R)-3-chloro-12′-hydroxy-3′-methyl-1′,11′-dioxo-N-(2,4,6-trifluorobenzyl)-1′,4′,5′,11′-tetrahydro-3′H,4H,7′H-spiro[isoxazole-5,6′-[2,7]methanopyrido[1,2-a][1,4]diazonine]-10′-carboxamide] | 9470 | 166 | 0.3 |  | 1.7
12 | CC1=NO[C@@]2(CC[C@H](CF)N3C[C@H]2n2cc(C(=O)NCc4c(F)cc(F)cc4F)c(=O)c(O)c2C3=O)C1 [Example 54, (3′R,5S,7′R)-3′-(fluoromethyl)-12′-hydroxy-3-methyl-1′,11′-dioxo-N-(2,4,6-trifluorobenzyl)-1′,4′,5′,11′-tetrahydro-3′H,4H,7′H-spiro[isoxazole-5,6′-[2,7]methanopyrido[1,2-a][1,4]diazonine]-10′-carboxamide] | 27300 | 53.7 | 0.3 | 0.7 | 
13 | C[C@H]1CC[C@@]2(CCO2)[C@H]2CN1C(=O)c1c(O)c(=O)c(C(=O)NCc3c(F)cc(F)cc3F)cn12 [Example 55, (2R,3′S,7′R)-12′-hydroxy-3′-methyl-1′,11′-dioxo-N-(2,4,6-trifluorobenzyl)-1′,4′,5′,11′-tetrahydro-3′H,7′H-spiro[oxetane-2,6′-[2,7]methanopyrido[1,2-a][1,4]diazonine]-10′-carboxamide] | ≥ 50000 | 51 | 1.1 | 1.7 | 

From patent US20250115620A1, “BRIDGED TRICYCLIC CARBAMOYLPYRIDONE COMPOUNDS AND USES THEREOF” (Gilead Sciences, Inc., priority 2022, published 2025)
